Results as given in ChEMBL document CHEMBL3885881, “DrugMatrix”.

Species: Rattus norvegicus
Test: DrugMatrix - Regimen: Daily Repeat
Type: toxicity, organism-based, Sprague-Dawley
Parameters: regimen Daily Repeat, gender Male, age 6-8 weeks
Conditions: in vivo, po, route oral GAVAGE, vehicle 100 % WATER; for ABSOLUTE BASOPHIL / ABSOLUTE EOSINOPHIL / ABSOLUTE LYMPHOCYTE / ABSOLUTE MONOCYTE / ABSOLUTE SEGMENTED NEUTROPHIL / BASOPHIL / EOSINOPHIL / ERYTHROCYTE COUNT / HEMATOCRIT / HEMOGLOBIN / LEUKOCYTE COUNT / LYMPHOCYTE / MEAN CORPUSCULAR HEMOGLOBIN / MEAN CORPUSCULAR HEMOGLOBIN CONCENTRATION / MEAN CORPUSCULAR VOLUME / MONOCYTE / NEUTROPHIL / NUCLEATED RED BLOOD CELLS / PLATELET COUNT: tissue Blood; for ALANINE AMINOTRANSFERASE / ALBUMIN / ALKALINE PHOSPHATASE / ASPARTATE AMINOTRANSFERASE / BLOOD UREA NITROGEN / CARBON DIOXIDE / CHLORIDE / CHOLESTEROL / CREATINE PHOSPHOKINASE / CREATININE / GLUCOSE / LIPASE / PHOSPHORUS / POTASSIUM / SODIUM / TOTAL BILIRUBIN / TOTAL PROTEIN / URIC ACID: tissue Plasma
[1] = 0 mg/kg, 72 h, dose level Control, time 3 day
[2] = 0 mg/kg, 120 h, dose level Control, time 5 day
[3] = 10 mg/kg, 72 h, dose level Low, time 3 day
[4] = 10 mg/kg, 120 h, dose level Low, time 5 day

Fc1ccc([C@@H]2CCNC[C@H]2COc2ccc3c(c2)OCO3)cc1 [PAROXETINE]
ABSOLUTE BASOPHIL [1]: 0 CELLS/uL | ABSOLUTE EOSINOPHIL [1]: 32.5 CELLS/uL | ABSOLUTE LYMPHOCYTE [1]: 9305.83 CELLS/uL | ABSOLUTE MONOCYTE [1]: 43.83 CELLS/uL | ABSOLUTE SEGMENTED NEUTROPHIL [1]: 817.83 CELLS/uL | BASOPHIL [1]: 0% | EOSINOPHIL [1]: 0.33% | ERYTHROCYTE COUNT [1]: 5.38 x10E6/uL | HEMATOCRIT [1]: 33.63% | HEMOGLOBIN [1]: 13.17 G/DL | LEUKOCYTE COUNT [1]: 10.2 x10E3/uL | LYMPHOCYTE [1]: 91.17% | MEAN CORPUSCULAR HEMOGLOBIN [1]: 24.5 pg | MEAN CORPUSCULAR HEMOGLOBIN CONCENTRATION [1]: 39.13 G/DL | MEAN CORPUSCULAR VOLUME [1]: 62.53 fL | MONOCYTE [1]: 0.5% | NEUTROPHIL [1]: 8% | NUCLEATED RED BLOOD CELLS [1]: 0.17 /100WBC | PLATELET COUNT [1]: 858 x10E3/uL | ALANINE AMINOTRANSFERASE [1]: 55.67 u/L | ALBUMIN [1]: 4.07 G/DL | ALKALINE PHOSPHATASE [1]: 337 u/L | ASPARTATE AMINOTRANSFERASE [1]: 84 u/L | BLOOD UREA NITROGEN [1]: 13.17 mg/dL | CARBON DIOXIDE [1]: 34.17 mmol/L | CHLORIDE [1]: 99.33 MEQ/L | CHOLESTEROL [1]: 78.83 mg/dL | CREATINE PHOSPHOKINASE [1]: 576.83 u/L | CREATININE [1]: 0.17 mg/dL | GLUCOSE [1]: 152.67 mg/dL | LIPASE [1]: 9.5 u/L | PHOSPHORUS [1]: 10.78 mg/dL | POTASSIUM [1]: 6.34 MEQ/L | SODIUM [1]: 144.12 MEQ/L | TOTAL BILIRUBIN [1]: 0.18 mg/dL | TOTAL PROTEIN [1]: 6.08 G/DL | URIC ACID [1]: 0.65 mg/dL | ABSOLUTE BASOPHIL [2]: 0 CELLS/uL | ABSOLUTE EOSINOPHIL [2]: 31.17 CELLS/uL | ABSOLUTE LYMPHOCYTE [2]: 7918.33 CELLS/uL | ABSOLUTE MONOCYTE [2]: 58.33 CELLS/uL | ABSOLUTE SEGMENTED NEUTROPHIL [2]: 725.5 CELLS/uL | BASOPHIL [2]: 0% | EOSINOPHIL [2]: 0.33% | ERYTHROCYTE COUNT [2]: 5.32 x10E6/uL | HEMATOCRIT [2]: 33.53% | HEMOGLOBIN [2]: 13.17 G/DL | LEUKOCYTE COUNT [2]: 8.73 x10E3/uL | LYMPHOCYTE [2]: 90.33% | MEAN CORPUSCULAR HEMOGLOBIN [2]: 24.82 pg | MEAN CORPUSCULAR HEMOGLOBIN CONCENTRATION [2]: 39.33 G/DL | MEAN CORPUSCULAR VOLUME [2]: 63.12 fL | MONOCYTE [2]: 0.67% | NEUTROPHIL [2]: 8.67% | NUCLEATED RED BLOOD CELLS [2]: 0 /100WBC | PLATELET COUNT [2]: 1144.83 x10E3/uL | ALANINE AMINOTRANSFERASE [2]: 60.5 u/L | ALBUMIN [2]: 3.97 G/DL | ALKALINE PHOSPHATASE [2]: 343.17 u/L | ASPARTATE AMINOTRANSFERASE [2]: 80.83 u/L | BLOOD UREA NITROGEN [2]: 15 mg/dL | CARBON DIOXIDE [2]: 31 mmol/L | CHLORIDE [2]: 99.75 MEQ/L | CHOLESTEROL [2]: 71.5 mg/dL | CREATINE PHOSPHOKINASE [2]: 237.17 u/L | CREATININE [2]: 0.17 mg/dL | GLUCOSE [2]: 137 mg/dL | LIPASE [2]: 11.5 u/L | PHOSPHORUS [2]: 10.13 mg/dL | POTASSIUM [2]: 6 MEQ/L | SODIUM [2]: 145 MEQ/L | TOTAL BILIRUBIN [2]: 0.13 mg/dL | TOTAL PROTEIN [2]: 5.82 G/DL | URIC ACID [2]: 0.62 mg/dL | ABSOLUTE BASOPHIL [3]: 0 CELLS/uL | ABSOLUTE EOSINOPHIL [3]: 33 CELLS/uL | ABSOLUTE LYMPHOCYTE [3]: 7114.67 CELLS/uL | ABSOLUTE MONOCYTE [3]: 0 CELLS/uL | ABSOLUTE SEGMENTED NEUTROPHIL [3]: 519 CELLS/uL | BASOPHIL [3]: 0% | EOSINOPHIL [3]: 0.33% | ERYTHROCYTE COUNT [3]: 5.11 x10E6/uL | HEMATOCRIT [3]: 31.5% | HEMOGLOBIN [3]: 12.33 G/DL | LEUKOCYTE COUNT [3]: 7.67 x10E3/uL | LYMPHOCYTE [3]: 92.67% | MEAN CORPUSCULAR HEMOGLOBIN [3]: 24.2 pg | MEAN CORPUSCULAR HEMOGLOBIN CONCENTRATION [3]: 39.2 G/DL | MEAN CORPUSCULAR VOLUME [3]: 61.7 fL | MONOCYTE [3]: 0% | NEUTROPHIL [3]: 7% | NUCLEATED RED BLOOD CELLS [3]: 0.33 /100WBC | PLATELET COUNT [3]: 979 x10E3/uL | ALANINE AMINOTRANSFERASE [3]: 52.67 u/L | ALBUMIN [3]: 4 G/DL | ALKALINE PHOSPHATASE [3]: 368 u/L | ASPARTATE AMINOTRANSFERASE [3]: 88.67 u/L | BLOOD UREA NITROGEN [3]: 16 mg/dL | CARBON DIOXIDE [3]: 35.33 mmol/L | CHLORIDE [3]: 100.33 MEQ/L | CHOLESTEROL [3]: 67.33 mg/dL | CREATINE PHOSPHOKINASE [3]: 233 u/L | CREATININE [3]: 0.14 mg/dL | GLUCOSE [3]: 119.33 mg/dL | LIPASE [3]: 9.33 u/L | PHOSPHORUS [3]: 10.97 mg/dL | POTASSIUM [3]: 6.17 MEQ/L | SODIUM [3]: 145.03 MEQ/L | TOTAL BILIRUBIN [3]: 0.2 mg/dL | TOTAL PROTEIN [3]: 5.83 G/DL | URIC ACID [3]: 0.77 mg/dL | ABSOLUTE BASOPHIL [4]: 0 CELLS/uL | ABSOLUTE EOSINOPHIL [4]: 0 CELLS/uL | ABSOLUTE LYMPHOCYTE [4]: 6074.67 CELLS/uL | ABSOLUTE MONOCYTE [4]: 188.33 CELLS/uL | ABSOLUTE SEGMENTED NEUTROPHIL [4]: 703.67 CELLS/uL | BASOPHIL [4]: 0% | EOSINOPHIL [4]: 0% | ERYTHROCYTE COUNT [4]: 5.7 x10E6/uL | HEMATOCRIT [4]: 34.77% | HEMOGLOBIN [4]: 13.23 G/DL | LEUKOCYTE COUNT [4]: 6.97 x10E3/uL | LYMPHOCYTE [4]: 86.67% | MEAN CORPUSCULAR HEMOGLOBIN [4]: 23.2 pg | MEAN CORPUSCULAR HEMOGLOBIN CONCENTRATION [4]: 38.07 G/DL | MEAN CORPUSCULAR VOLUME [4]: 61 fL | MONOCYTE [4]: 2.33% | NEUTROPHIL [4]: 11% | NUCLEATED RED BLOOD CELLS [4]: 0 /100WBC | PLATELET COUNT [4]: 1176.67 x10E3/uL | ALANINE AMINOTRANSFERASE [4]: 56.33 u/L | ALBUMIN [4]: 4.17 G/DL | ALKALINE PHOSPHATASE [4]: 432.67 u/L | ASPARTATE AMINOTRANSFERASE [4]: 87.67 u/L | BLOOD UREA NITROGEN [4]: 17 mg/dL | CARBON DIOXIDE [4]: 31.67 mmol/L | CHLORIDE [4]: 99.67 MEQ/L | CHOLESTEROL [4]: 81 mg/dL | CREATINE PHOSPHOKINASE [4]: 254 u/L | CREATININE [4]: 0.19 mg/dL | GLUCOSE [4]: 152.67 mg/dL | LIPASE [4]: 9.67 u/L | PHOSPHORUS [4]: 10.57 mg/dL | POTASSIUM [4]: 6.09 MEQ/L | SODIUM [4]: 145.13 MEQ/L | TOTAL BILIRUBIN [4]: 0.2 mg/dL | TOTAL PROTEIN [4]: 6.03 G/DL | URIC ACID [4]: 0.77 mg/dL
